What was measured:
GST-tagged FAK = target: T1, GST-tagged FAK (Homo sapiens, UniProt Q05397); assay: Biochemical assay for FAK activity, Assay 1: phosphorylation of peptide substrate with radio-labeled ATP; settings: 5 μM ATP, 30 min pre-incubation, read-out: Assay 1 FAK TRF PXC50 (converted)
T1 construct: purchased Invitrogen PV3832
Procedure: GST-tagged (glutathione S-transferase-tagged) FAK was purchased from Invitrogen (PV3832) (www.invitrogen.com). […] To measure inhibitors of FAK, compounds were first prepared as a 10× stock in 10% DMSO. […] A 6-nM GST-FAK solution was prepared in 1.1× reaction buffer containing 44 mM HEPES, pH=7.2, 11 mM MgCl2, 2.2 mM MnCl2, 1.1 mM DTT and 0.011% Tween-20. Then, 20 μL of the 6 nM GST-FAK solution were pre-incubated with the compounds for 30 min at room temperature. […] The reaction was allowed to proceed for 90 min before being quenched with 40 μL of 1% H3PO4. A portion of the reaction mixture (60 μL) was transferred to a phospho-cellulose filter plate (Millipore; www.millipore.com, MAPHNOB50) and incubated for 20 minutes. The plate was filtrated, washed three times using 150 μL of 0.5% H3PO4 and dried at 50° C. for 30 min. After the addition of 60 μL Microscint-20 to the plate, radioactivity was measured using a TopCount (PerkinElmer; www.PerkinElmer.com).

[1] = target: T2, Full length Human FAK (Flag-His-TEV-FAK1) (Homo sapiens, UniProt Q05397); assay: Biochemical assay for FAK activity, Assay 2: LANCE Ultra ULight peptide phosphorylation, 665 nm/615 nm ratio; settings: Flag-His-TEV-FAK1, 10 μM ATP, 30 min pre-incubation; read-out: Assay 2 FAK H 31284A TRF PXC50 (converted)
T2 construct: Full length Human FAK was expressed using baculovirus in Sf9 cells; made in house; host or cells: baculovirus in Sf9 cells
T2 sequence (Q05397 whole entry): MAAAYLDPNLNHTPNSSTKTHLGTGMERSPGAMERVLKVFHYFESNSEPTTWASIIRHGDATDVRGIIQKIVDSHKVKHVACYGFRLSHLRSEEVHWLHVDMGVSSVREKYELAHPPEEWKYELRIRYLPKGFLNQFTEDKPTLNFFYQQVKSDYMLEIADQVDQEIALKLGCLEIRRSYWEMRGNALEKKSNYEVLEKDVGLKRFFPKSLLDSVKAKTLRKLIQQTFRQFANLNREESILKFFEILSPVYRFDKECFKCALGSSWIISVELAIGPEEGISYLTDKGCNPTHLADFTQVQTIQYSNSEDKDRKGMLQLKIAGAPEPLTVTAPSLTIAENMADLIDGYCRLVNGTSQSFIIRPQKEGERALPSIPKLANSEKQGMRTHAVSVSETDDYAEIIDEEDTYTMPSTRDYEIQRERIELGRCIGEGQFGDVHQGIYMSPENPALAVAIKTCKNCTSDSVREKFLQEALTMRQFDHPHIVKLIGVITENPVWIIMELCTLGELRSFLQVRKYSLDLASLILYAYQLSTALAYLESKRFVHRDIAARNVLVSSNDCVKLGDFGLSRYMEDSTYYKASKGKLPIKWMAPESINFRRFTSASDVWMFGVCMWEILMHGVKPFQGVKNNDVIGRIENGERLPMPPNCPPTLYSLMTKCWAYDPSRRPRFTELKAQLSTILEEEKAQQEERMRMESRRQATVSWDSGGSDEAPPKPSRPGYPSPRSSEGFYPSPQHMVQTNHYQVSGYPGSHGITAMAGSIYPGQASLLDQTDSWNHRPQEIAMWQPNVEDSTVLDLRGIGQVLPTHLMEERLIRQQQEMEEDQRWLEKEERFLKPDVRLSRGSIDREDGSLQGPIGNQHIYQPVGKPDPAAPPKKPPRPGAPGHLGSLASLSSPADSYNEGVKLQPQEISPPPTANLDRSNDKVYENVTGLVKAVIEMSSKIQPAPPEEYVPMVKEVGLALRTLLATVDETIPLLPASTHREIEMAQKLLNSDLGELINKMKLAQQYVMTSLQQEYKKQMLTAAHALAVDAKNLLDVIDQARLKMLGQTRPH

T1 sequence (Q05397 whole entry): as above

| Structure (SMILES) | IC50 (GST-tagged FAK) [nM] | IC50 [1] [nM] |
| --- | --- | --- |
| CNC(=O)c1cc(N2CCN(CCO)CC2)ccc1Nc1cc(Cl)ncc1Cl [Example 66, 2-[(2,5-Dichloro-4-pyridinyl)amino]-5-[4-(2-hydroxyethyl)-1-piperazinyl]-N-methylbenzamide] | 2 | 31.6 |
| CCn1nccc1Nc1cc(Nc2ccc(N3CCN(CCO)CC3)cc2C(=O)NC)c(Cl)cn1 [Example 67, 2-({5-Chloro-2-[(1-ethyl-1H-pyrazol-5-yl)amino]-4-pyridinyl}amino)-5-[4-(2-hydroxyethyl)-1-piperazinyl]-N-methylbenzamide] | 63.1 | 5.01 |
